ChEMBL document CHEMBL1201862, “PubChem BioAssay data set” (2004)
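Dose response: 5 concentrations. Exposure: 48 h. Format: 96-well plates. Endpoint: linear interpolation; highest concentration if not reached. The concentration for 50% growth inhibition is given as GI50.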 The source made the active and inactive calls. Cut-off read from the data, not from the text of the source: active = GI50 up to about 1.1 µM and inactive = higher.

How the values were obtained:
Test in all cases: NCI anticancer screen, dose series, 48 h
[1] = system: CAKI-1
[2] = system: COLO 205
[3] = system: HCC 2998
[4] = system: KM12
[5] = system: M14
[6] = system: MCF7
[7] = system: MDA-MB-435
[8] = system: Malme-3M
[9] = system: OVCAR-3
[10] = system: OVCAR-4
[11] = system: OVCAR-5
[12] = system: RPMI-8226
[13] = system: SF-539
[14] = system: SK-MEL-28
[15] = system: SR
[16] = system: T47D
[17] = system: TK-10
[18] = system: U-251
[19] = system: HCT-116
[20] = system: LOX IMVI

Row | SMILES | GI50 [1] | GI50 [2] | GI50 [3] | GI50 [4] | GI50 [5] | GI50 [6] | GI50 [7] | GI50 [8] | GI50 [9] | GI50 [10] | GI50 [11] | GI50 [12] | GI50 [13] | GI50 [14] | GI50 [15] | GI50 [16] | GI50 [17] | GI50 [18] | GI50 [19] | GI50 [20]
1 | CCCCNC(=S)N/C=C1\C(=O)Nc2ccccc2C1=O | > 10 µM (inactive) | > 10 µM (inactive) | > 10 µM (inactive) | > 10 µM (inactive) | > 10 µM (inactive) | > 10 µM (inactive) | > 10 µM (inactive) | > 10 µM (inactive) | > 10 µM (inactive) | > 10 µM (inactive) | > 10 µM (inactive) | > 10 µM (inactive) | > 10 µM (inactive) | > 10 µM (inactive) | > 10 µM (inactive) | > 10 µM (inactive) | > 10 µM (inactive) | > 10 µM (inactive) | – | –
2 | O=c1oc2ccccc2c2c1Sc1ccccc1N2 | > 100 µM (inactive) | > 100 µM (inactive) | 53 µM (inactive) | 70.5 µM (inactive) | > 100 µM (inactive) | 71.3 µM (inactive) | 96.4 µM (inactive) | – | 68.9 µM (inactive) | 22.8 µM (inactive) | > 100 µM (inactive) | 47.2 µM (inactive) | > 100 µM (inactive) | > 100 µM (inactive) | 53.6 µM (inactive) | 0.897 µM (active) | > 100 µM (inactive) | 58.3 µM (inactive) | 89.3 µM (inactive) | > 100 µM (inactive)
3 | c1cncc(CNCCN2CCNCC2)c1 | > 100 µM (inactive) | > 100 µM (inactive) | – | > 100 µM (inactive) | > 100 µM (inactive) | > 100 µM (inactive) | > 100 µM (inactive) | > 100 µM (inactive) | > 100 µM (inactive) | > 100 µM (inactive) | > 100 µM (inactive) | > 100 µM (inactive) | > 100 µM (inactive) | > 100 µM (inactive) | > 100 µM (inactive) | > 100 µM (inactive) | > 100 µM (inactive) | > 100 µM (inactive) | > 100 µM (inactive) | > 100 µM (inactive)
4 | CO/C=C(/C(=O)OC)c1ccccc1[C@H]1C[C@@H]1c1ccccc1 | 16 µM (inactive) | 14 µM (inactive) | 20.6 µM (inactive) | 20.1 µM (inactive) | 19.2 µM (inactive) | 29 µM (inactive) | 17.8 µM (inactive) | 13.1 µM (inactive) | 18.5 µM (inactive) | 17.8 µM (inactive) | 73.8 µM (inactive) | 12.6 µM (inactive) | 21.2 µM (inactive) | 25.8 µM (inactive) | 14.2 µM (inactive) | 18.6 µM (inactive) | 28 µM (inactive) | 23.1 µM (inactive) | 17.4 µM (inactive) | –
5 | O=C1/C(=C/Cc2ccco2)N=C(c2ccccc2)N1c1nc2c(Cl)cc(Cl)cc2s1 | 32.6 µM (inactive) | 40.5 µM (inactive) | 31.7 µM (inactive) | 27.7 µM (inactive) | 39.3 µM (inactive) | 25.6 µM (inactive) | 20.5 µM (inactive) | – | 22.5 µM (inactive) | 21.3 µM (inactive) | 52.2 µM (inactive) | 12.4 µM (inactive) | 23 µM (inactive) | 57.1 µM (inactive) | 14.9 µM (inactive) | 16.8 µM (inactive) | 42.7 µM (inactive) | 27 µM (inactive) | 27.7 µM (inactive) | 25.4 µM (inactive)
6 | COc1c(C)c2c(c(O)c1C/C=C(\C)CCC(=O)O)C(=O)OC2 [MYCOPHENOLIC ACID] | 0.805 µM (active) | 1.08 µM (active) | 3.94 µM (inactive) | 0.944 µM (active) | 1.58 µM (inactive) | 0.376 µM (active) | 0.871 µM (active) | – | 2.91 µM (inactive) | > 21.8 µM (inactive) | 7.05 µM (inactive) | 1.7 µM (inactive) | 1.46 µM (inactive) | 1.91 µM (inactive) | 0.446 µM (active) | 7.33 µM (inactive) | 17.4 µM (inactive) | 0.342 µM (active) | 0.465 µM (active) | 0.401 µM (active)
7 | O=C1c2ccccc2-c2[nH]c3cn[nH]c(=O)c3c21 | 91.6 µM (inactive) | 89.5 µM (inactive) | – | > 100 µM (inactive) | > 100 µM (inactive) | 43.9 µM (inactive) | 48.6 µM (inactive) | > 100 µM (inactive) | > 100 µM (inactive) | > 100 µM (inactive) | > 100 µM (inactive) | 92.9 µM (inactive) | > 100 µM (inactive) | – | 45 µM (inactive) | > 100 µM (inactive) | > 100 µM (inactive) | > 100 µM (inactive) | 38.6 µM (inactive) | 78.5 µM (inactive)
8 | CN(C)CCCNc1cc(O)c2c(c1O)C(=O)c1ccccc1C2=O | 13 µM (inactive) | 11.5 µM (inactive) | – | 9.4 µM (inactive) | 5.38 µM (inactive) | 11.6 µM (inactive) | 15.5 µM (inactive) | 31.3 µM (inactive) | 11.3 µM (inactive) | 12.1 µM (inactive) | 18.9 µM (inactive) | 12.9 µM (inactive) | 12.1 µM (inactive) | 16.4 µM (inactive) | 3.01 µM (inactive) | 19 µM (inactive) | 10.2 µM (inactive) | 13.2 µM (inactive) | 4.9 µM (inactive) | 9.53 µM (inactive)
9 | CNc1ccc([S+]([O-])Nc2ccccc2)cc1 (stereo not given) | – | 26.4 µM (inactive) | 23.1 µM (inactive) | 21.8 µM (inactive) | – | 56 µM (inactive) | 34 µM (inactive) | 53.2 µM (inactive) | 51.4 µM (inactive) | 94.2 µM (inactive) | > 100 µM (inactive) | 39.8 µM (inactive) | > 100 µM (inactive) | > 100 µM (inactive) | 38.2 µM (inactive) | 19.5 µM (inactive) | > 100 µM (inactive) | 36.2 µM (inactive) | 40.2 µM (inactive) | 41.9 µM (inactive)
10 | Cc1nc2ccccc2n1Cc1nnc(-c2ccccc2)o1 | – | 74.6 µM (inactive) | > 100 µM (inactive) | 20.6 µM (inactive) | > 100 µM (inactive) | 63.1 µM (inactive) | 0.104 µM (active) | > 100 µM (inactive) | > 100 µM (inactive) | – | > 100 µM (inactive) | 75 µM (inactive) | 27.2 µM (inactive) | > 100 µM (inactive) | 43.6 µM (inactive) | 57.8 µM (inactive) | > 100 µM (inactive) | > 100 µM (inactive) | 46.2 µM (inactive) | 25.1 µM (inactive)
11 | OC1CN2Cc3cc4c(cc3[C@]13C=C[C@@H](O)CC23)OCO4 (stereo not given in full) | 11.9 µM (inactive) | 22.3 µM (inactive) | – | 18.1 µM (inactive) | 20.5 µM (inactive) | 16.4 µM (inactive) | 20 µM (inactive) | 35.8 µM (inactive) | 37.2 µM (inactive) | 19.8 µM (inactive) | 23.9 µM (inactive) | 32.6 µM (inactive) | 45.6 µM (inactive) | 48.4 µM (inactive) | 12.4 µM (inactive) | 4.82 µM (inactive) | 23.2 µM (inactive) | 30.8 µM (inactive) | 14.2 µM (inactive) | 30 µM (inactive)
